Values quoted from earlier work in patent US12377034B2, “Method for dyeing keratinous material, comprising the use of an organosilicon compound, an effect pigment and a film-forming polymer II” (Henkel AG & Co. KGaA, priority 2019, dated 2025).

Details: for solubility in water: 25° C.

solubility in water (in words) (at 25° C.) | solubility in water | SMILES
highly soluble | – | O=C(O)C1=NN(c2ccc(S(=O)(=O)O)cc2)C(=O)C1N=Nc1ccc(S(=O)(=O)O)cc1 (stereo not shown) [Acid Yellow 23, 4,5-dihydro-5-oxo-1-(4-sulfophenyl)-4-((4-sulfophenyl)azo)-1H-pyrazole-3-carboxylic acid]
– | more than 20 % by weight | CCN(Cc1cccc(S(=O)(=O)O)c1)c1ccc(C(=C2C=CC(=[N+](CC)Cc3cccc(S(=O)(=O)O)c3)C=C2)c2ccccc2S(=O)(=O)[O-])cc1 [Acid Blue 9]
– | above 40 g/L | O=[N+]([O-])c1cc([N+](=O)[O-])c2ccc(S(=O)(=O)O)cc2c1O [Acid Yellow 9, 8-hydroxy-5,7-dinitro-2-naphthalenesulfonic acid]

SMILES | solubility in water (in words) (at 25° C.) | solubility in water
O=S(=O)(O)c1ccc(N=Nc2c(O)ccc3ccccc23)cc1 [Acid Orange 7, 4-[(2-hydroxy-1-naphthyl)azo]benzene sulphonate] | – | more than 7 g/L
